Experimental data from US8507251B2, “Medium and method for culturing Mycobacterium avium subspecies paratuberculosis” (priority 2009, dated 2013).
Read-outs that look alike come from different tables or passages of the source.

Columns and labels:
[1] = test system: eight mycobacterial strains
[2] = test system: MAP strain Dominic (ATCC 43545); assay: radiometric 14CO2 BACTEC 460 growth culture, MAP Dominic; format: cell-based, Mycobacterium avium subspecies paratuberculosis
MAP strain UCF-4 = assay: radiometric 14CO2 BACTEC 460 growth culture, MAP UCF-4; format: cell-based, Mycobacterium avium subspecies paratuberculosis
MAP ATCC 19698 = assay: radiometric 14CO2 BACTEC 460 growth culture, MAP 19698; format: cell-based, Mycobacterium avium subspecies paratuberculosis
MAP 303 = assay: radiometric 14CO2 BACTEC 460 growth culture, MAP 303; format: cell-based, Mycobacterium avium subspecies paratuberculosis
M. avium ATCC 25291 = assay: radiometric 14CO2 BACTEC 460 growth culture, M. avium 25291; format: cell-based, M. avium subspecies avium
M. avium 101 = assay: radiometric 14CO2 BACTEC 460 growth culture, M. avium 101; format: cell-based, M. avium subspecies avium
[3] = test system: Bacillus Callmette Guerin (BCG) M. bovis Karlson & Lessel (ATCC 19015); format: cell-based
[4] = test system: avirulent M. tb strain ATCC 25177; format: cell-based, M. tuberculosis

CN1CCCC1c1cccnc1 (racemic) [(±) nicotine, nicotine]
effect on growth (in words) [1]: neither enhancement nor an inhibitory effect

CN1CCCC1c1cccnc1 (single isomer, unassigned; (+)) [(+) nicotine, nicotine]
effect on growth (in words) [1]: neither enhancement nor an inhibitory effect

CN1CCCC1c1cccnc1 (single isomer, unassigned; (-)) [(−) nicotine, nicotine]
effect on growth (in words) [1]: neither enhancement nor an inhibitory effect

NNC(=O)c1ccncc1 [INH, Isoniazid, reference compound]
percent change from control cGI (% ΔcGI / % −ΔcGI) ([2]; 1 μg/ml, first of the two values (two experiments)): 18% | percent change from control cGI (% ΔcGI / % −ΔcGI) ([2]; 1 μg/ml, second of the two values (two experiments)): 11% | percent change from control cGI (% ΔcGI / % −ΔcGI) ([2]; 4 μg/ml, first of the two values (two experiments)): 9% | percent change from control cGI (% ΔcGI / % −ΔcGI) ([2]; 4 μg/ml, second of the two values (two experiments)): 29% | percent change from control cGI (% ΔcGI / % −ΔcGI) ([2]; 16 μg/ml, first of the two values (two experiments)): −4% | percent change from control cGI (% ΔcGI / % −ΔcGI) ([2]; 16 μg/ml, second of the two values (two experiments)): 9% | percent change from control cGI (% ΔcGI / % −ΔcGI) ([2]; 64 μg/ml, first of the two values (two experiments)): −65% | percent change from control cGI (% ΔcGI / % −ΔcGI) ([2]; 64 μg/ml, second of the two values (two experiments)): −52% | effect on growth (in words) ([2]; at the doses tested): no dose-dependent inhibition | percent change from control cGI (% ΔcGI / % −ΔcGI) (MAP strain UCF-4; 1 μg/ml): −5% | percent change from control cGI (% ΔcGI / % −ΔcGI) (MAP strain UCF-4; 4 μg/ml): 2% | percent change from control cGI (% ΔcGI / % −ΔcGI) (MAP strain UCF-4; 16 μg/ml): −4% | percent change from control cGI (% ΔcGI / % −ΔcGI) (MAP strain UCF-4; 64 μg/ml): −35% | effect on growth (in words) (MAP strain UCF-4; at the doses tested): no dose-dependent inhibition | percent change from control cGI (% ΔcGI / % −ΔcGI) (MAP ATCC 19698; 1 μg/ml): −20% | percent change from control cGI (% ΔcGI / % −ΔcGI) (MAP ATCC 19698; 4 μg/ml): −14% | percent change from control cGI (% ΔcGI / % −ΔcGI) (MAP ATCC 19698; 16 μg/ml): −17% | percent change from control cGI (% ΔcGI / % −ΔcGI) (MAP ATCC 19698; 64 μg/ml): −63% | effect on growth (in words) (MAP ATCC 19698; at the doses tested): no dose-dependent inhibition | percent change from control cGI (% ΔcGI / % −ΔcGI) (MAP 303; 1 μg/ml): −18% | percent change from control cGI (% ΔcGI / % −ΔcGI) (MAP 303; 4 μg/ml): −6% | percent change from control cGI (% ΔcGI / % −ΔcGI) (MAP 303; 16 μg/ml): −12% | percent change from control cGI (% ΔcGI / % −ΔcGI) (MAP 303; 64 μg/ml): −52% | effect on growth (in words) (MAP 303; at the doses tested): no dose-dependent inhibition | percent change from control cGI (% ΔcGI / % −ΔcGI) (M. avium ATCC 25291; 1 μg/ml): 176% | percent change from control cGI (% ΔcGI / % −ΔcGI) (M. avium ATCC 25291; 4 μg/ml): 89% | percent change from control cGI (% ΔcGI / % −ΔcGI) (M. avium ATCC 25291; 16 μg/ml): 189% | percent change from control cGI (% ΔcGI / % −ΔcGI) (M. avium ATCC 25291; 64 μg/ml): −90% | percent change from control cGI (% ΔcGI / % −ΔcGI) (M. avium 101; 1 μg/ml): −48% | percent change from control cGI (% ΔcGI / % −ΔcGI) (M. avium 101; 4 μg/ml): −96% | percent change from control cGI (% ΔcGI / % −ΔcGI) (M. avium 101; 16 μg/ml): −95% | percent change from control cGI (% ΔcGI / % −ΔcGI) (M. avium 101; 64 μg/ml): −97% | percent decrease from control cGI (%−ΔcGI) (M. avium 101; 64 μg/ml, value is a decrease): ≥ 97% | percent decrease from control cGI (%−ΔcGI) [3]: ≥ 97% | percent change from control cGI (% ΔcGI / % −ΔcGI) ([4]; 1 μg/ml): −97% | percent decrease from control cGI (%−ΔcGI) ([4]; 1 μg/ml): 97% | percent change from control cGI (% ΔcGI / % −ΔcGI) ([4]; 4 μg/ml): −98% | percent change from control cGI (% ΔcGI / % −ΔcGI) ([4]; 16 μg/ml): −98% | percent change from control cGI (% ΔcGI / % −ΔcGI) ([4]; 64 μg/ml): −98%
